Experimental data reported in US20050002552A1, “Automated in vitro cellular imaging assays for micronuclei and other target objects” (Pfizer Inc, priority 2003, published 2005).
Where two headings read alike, the source gives them in different places.

How the values were obtained:
[1] = tested on: Chinese hamster ovary cells; details: cut-off two to three times the negative control value (1.1%); both wells, automated and manual scoring
Source text: A small quantity of a discovery drug candidate will be added to each well (the amount will usually be in the range of from 0 micrograms to about 500 micrograms and often in the range of from 0 micrograms to about 100 micrograms), desirably in a carrier medium containing DMSO (dimethyl sulfoxide), ethanol, methanol, acetonitrile, and/or water.
A mixture such as one containing amino acids (e.g., L-glutamine), serum (e.g., 5% fetal bovine serum), and glucose will be added to the wells to provide an aqueous growth medium for the cells. […] The presence of binucleated cells in the microwell at the end of the process is proof that nuclear division occurred in the presence of the discovery drug candidate.
After the cells become attached to the plate bottom, a chemical stimulus (agent) such as a discovery drug candidate can be added to each well. […]
If more than one micronuclei is found in a single cell, the cell is likely undergoing nuclear fragmentation as a result of apoptosis (programmed cell-death) and, accordingly, should be discarded from the final analysis. The micronuclei rate or frequency can be calculated as the number of micronucleated cells divided by the total number of nuclear division in a sample (the rate or frequency may be converted to a percentage by multiplying the rate or frequency by 100).

[2] = tested on: Chinese hamster ovary cells; experiment: In vitro micronucleus assay, non-Cytochalasin B protocol (mononucleated cells); details: cut-off double the DMSO value (micronuclei frequencies of 1.2% and higher are positive); manual or automated scoring; per run
Procedure: Accordingly, the method of this invention was also used to determine micronuclei frequency in non-cytokinesis-blocked cell samples (i.e., cell samples that were not treated with Cytochalasin B or the like) and, therefore, which were mononucleated.
In the second set of experiments, Chinese hamster ovary cells were used and the only difference in treatment and image acquisition protocol between runs in this set was the stimulus (i.e., chemical agent) with which the cells were incubated. Cytochalasin B was not used is this set of experiments (and, thus, the cells remained virtually all mononucleated throughout the experiment).

[3] = tested on: Chinese hamster ovary cells; details: stated as known; cited from earlier work

Structure (SMILES): CO[C@@]12[C@H](COC(N)=O)C3=C(C(=O)C(C)=C(N)C3=O)N1C[C@@H]1N[C@@H]12 [Mitomycin C]
- Response call (clastogenic/aneugenic) against negative control [1]: positive response
- Response call (clastogenic/aneugenic) against negative control [2]: positive
- Known aneugenicity/clastogenicity (positive control) [3]: aneugenic/clastogenic
